Several values for one entry are separate records, joined by “and”; a condition that tells them apart may be missing. Equal entries are not always repeated.
System: L1210
Experiment: Tumor cell selectivity determined as maximal percent increase in life span (ILSmax) at LD10 dosage level in L1210 cells
Format: functional, Mus musculus

SMILES	ILSmax
COc1cc(NS(C)(=O)=O)ccc1Nc1c2ccc([N+](=O)[O-])cc2nc2c(C)cccc12	72% and 113%
COc1ccccc1Nc1c2ccccc2nc2ccccc12	25%
COc1cc(NS(C)(=O)=O)ccc1Nc1c2ccccc2nc2cc([N+](=O)[O-])ccc12	76%
CC(=O)Nc1ccc2c(Nc3ccc(NS(C)(=O)=O)cc3)c3ccccc3nc2c1	60%
O=C(O)CCCCCCCCCc1ccc(Nc2c3ccccc3nc3ccccc23)cc1	75%
CC(=O)Nc1ccc2c(Nc3ccc(N(C(=O)C(C)C)S(C)(=O)=O)cc3)c3ccccc3nc2c1	140%
CCCCCC(=O)Nc1ccc(Nc2c3ccccc3nc3ccccc23)cc1	110%
CCCNC(=O)c1ccc(Nc2c3ccccc3nc3ccccc23)cc1	25%
COc1ccc2nc3cc(NC(C)=O)ccc3c(Nc3ccc(NS(C)(=O)=O)cc3)c2c1	25%
CCCCNC(=O)c1cccc2c(Nc3ccc(NS(C)(=O)=O)cc3OC)c3ccccc3nc12	95%
COc1cc(NS(C)(=O)=O)ccc1Nc1c2cccc(C)c2nc2c(C)c(N)ccc12	80%
COc1cccc2c(Nc3ccc(NS(C)(=O)=O)cc3)c3ccc(I)cc3nc12	80%
CC(=O)Nc1ccc2c(=Nc3ccc(CCC(=O)O)cc3)c3ccccc3[nH]c2c1	25%
COc1cc(NS(C)(=O)=O)ccc1Nc1c2ccccc2nc2c(C(=O)NCC(O)CO)cccc12 (stereo not given)	83%
COc1cc(N)ccc1N=c1c2ccccc2[nH]c2c(C)cccc12	120%
O=C(O)c1ccc(Nc2c3ccccc3nc3c(OCC(O)CO)cccc23)cc1 (stereo not given)	170%
NCCS(=O)(=O)Nc1ccc(Nc2c3ccccc3nc3ccccc23)cc1	25%
Nc1ccc(S(=O)(=O)Nc2ccc(Nc3c4ccccc4nc4cc(Cl)ccc34)cc2)cc1	50%
N=C(N)NCCCCS(=O)(=O)Nc1ccc(Nc2c3ccccc3nc3cc(Cl)ccc23)cc1	25%
O=[N+]([O-])c1ccccc1Nc1c2ccccc2nc2ccccc12	25%

SMILES	ILSmax
CS(=O)(=O)Nc1ccc(Nc2c3ccccc3nc3ccccc23)c(O)c1	85%
CS(=O)(=O)Nc1ccc(Nc2c3ccccc3nc3cc(NC(=O)c4ccccc4)ccc23)cc1	25%
Cc1cccc2nc3ccccc3c(Nc3ccc(NS(C)(=O)=O)cc3)c12	25%
COc1cc(NS(=O)(=O)CCCCN)ccc1Nc1c2ccccc2nc2c(C(N)=O)cccc12	25%
CCCCCCNc1ccc(Nc2c3ccccc3nc3ccccc23)cc1	25%
COc1ccc2c(Nc3ccc(NS(C)(=O)=O)cc3)c3ccc(N)cc3nc2c1	105%
N=C(N)NCCS(=O)(=O)Nc1ccc(Nc2c3ccc(N)cc3nc3ccc(N)cc23)cc1	85%
COc1cc(NS(C)(=O)=O)ccc1Nc1c2ccc(C)cc2nc2c(OC)cccc12	72%
Nc1ccc(C(=O)Nc2ccc(N=c3c4ccccc4[nH]c4ccc(N)cc34)cc2)cc1	76%
CCCS(=O)(=O)Nc1ccc(Nc2c3ccccc3nc3cc(NC(C)=O)ccc23)cc1	115%
COc1cc(N)ccc1Nc1c2ccccc2nc2ccccc12	25% and 66%
CCCCCS(=O)(=O)Nc1ccc(Nc2c3ccccc3nc3c(C(=O)NCCCC)cccc23)c(OC)c1	45%
CC(=O)Nc1ccccc1Nc1c2ccccc2nc2ccccc12	25%
Cc1cc(C(=O)O)ccc1Nc1c2ccccc2nc2ccccc12	25%
CS(=O)(=O)Nc1ccc(Nc2c3ccccc3nc3cc(I)ccc23)cc1	160%
CN(C)C(=O)CCS(=O)(=O)Nc1ccc(Nc2c3ccccc3nc3ccccc23)cc1	63%
Fc1ccccc1Nc1c2ccccc2nc2ccccc12	25%
N=C(N)Nc1ccc(NC(=O)Nc2ccc(N=c3c4ccccc4[nH]c4cc([N+](=O)[O-])ccc34)cc2)cc1	200%
O=C(O)CCCCCCc1ccc(Nc2c3ccccc3nc3ccccc23)cc1	74%
Cc1ccc2c(Nc3ccc(NS(C)(=O)=O)cc3)c3ccc(N)cc3nc2c1C	110%

Reference: ChEMBL document CHEMBL1122107, “Structure-antitumor activity relationships of 9-anilinoacridines using pattern recognition” (1982)
